Ki and EC50 data for 19 compounds are collected here from US9346815B2, “5-chloro-2-difluoromethoxyphenyl pyrazolopyrimidine compounds, compositions and methods of use thereof” (Genentech, Inc., priority 2014, dated 2016).

Assay [1] concerns the target isolated recombinant JAK1 kinase domain (Homo sapiens (Human), UniProt P23458). Kind of assay: JAK1 enzyme assay (Caliper LabChip, peptide phosphorylation). Conditions: isolated recombinant JAK1 kinase domain, 25 μM ATP. The format is biochemical.
For assay [2], the target named is isolated recombinant JAK2 kinase domain (Homo sapiens (Human), UniProt O60674). Description: JAK2 enzyme assay (Caliper LabChip, peptide phosphorylation). Format: biochemical. The note with it: 25 μM ATP.
In assay [3] the test system is JAK1-dependent STAT6 phosphorylation downstream of IL-13 stimulation in TF-1 human erythroleukemia cells. Description: JAK1 pathway assay in TF-1 cells (IL-13-pSTAT6, MSD). The note with it: Homo sapiens, TF-1, TF-1 cells, read-out: IL13-pSTAT6 EC50_TF-1. Format: cell-based. In short, it runs like this:
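TF-1 cells are starved of GM-CSF overnight and run in serum-free medium, while BEAS-2B cells stay in complete growth medium. Inhibition of STAT6 phosphorylation is measured by MSD.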

Sequence of isolated recombinant JAK1 kinase domain (P23458 875-1153): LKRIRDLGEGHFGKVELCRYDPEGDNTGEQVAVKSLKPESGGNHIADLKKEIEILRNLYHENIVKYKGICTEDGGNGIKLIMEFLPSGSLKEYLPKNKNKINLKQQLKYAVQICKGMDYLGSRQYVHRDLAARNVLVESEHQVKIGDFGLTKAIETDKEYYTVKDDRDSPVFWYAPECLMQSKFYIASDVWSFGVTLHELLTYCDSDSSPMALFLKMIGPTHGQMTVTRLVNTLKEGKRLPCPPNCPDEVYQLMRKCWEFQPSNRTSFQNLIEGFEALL
Sequence of isolated recombinant JAK2 kinase domain (O60674 849-1124): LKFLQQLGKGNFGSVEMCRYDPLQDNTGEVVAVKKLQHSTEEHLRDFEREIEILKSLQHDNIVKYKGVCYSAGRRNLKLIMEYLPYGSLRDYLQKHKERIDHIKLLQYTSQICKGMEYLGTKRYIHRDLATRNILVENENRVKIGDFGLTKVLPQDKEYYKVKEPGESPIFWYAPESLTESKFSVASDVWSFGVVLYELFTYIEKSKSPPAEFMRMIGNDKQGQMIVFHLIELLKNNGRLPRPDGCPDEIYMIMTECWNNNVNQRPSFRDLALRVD

Broadly, the Ki is a measure of affinity in units of concentration, obtained from inhibition or displacement. On to `O=C(Nc1cn(CC(=O)N2C[C@H]3CN(CCCOC(=O)C4CCC4)C[C@H]3C2)nc1-c1cc(Cl)ccc1OC(F)F)c1cnn2cccnc12` [Example 55, 3-[(3aS,6aR)-5-[2-[3-[5-chloro-2-(difluoromethoxy)phenyl]-4-(pyrazolo[1,5-a]pyrimidine-3-carbonylamino)pyrazol-1-yl]acetyl]-1,3,3a,4,6,6a-hexahydropyrrolo[3,4-c]pyrrol-2-yl]propyl cyclobutanecarboxylate], for which the Ki in assay [1] was 0.85 nM; in assay [2], 0.72 nM. The EC50 in assay [3] is 21 nM.
The matching figures for `Nc1nn2cccnc2c1C(=O)Nc1cn(CC(=O)N2C[C@H]3CN(CC4CCC(F)(F)CC4)C[C@H]3C2)nc1-c1cc(Cl)ccc1OC(F)F` [Example 58, N-[1-[2-[(3aS,6aR)-2-[(4,4-difluorocyclohexyl)methyl]-1,3,3a,4,6,6a-hexahydropyrrolo[3,4-c]pyrrol-5-yl]-2-oxo-ethyl]-3-[5-chloro-2-(difluoromethoxy)phenyl]pyrazol-4-yl]-2-amino-pyrazolo[1,5-a]pyrimidine-3-carboxamide]: 0.6 nM, 0.33 nM and 25.6 nM.
On to `O=C(Nc1cn(CC(=O)N2C[C@H]3CN(CCOCc4ccc(Cl)cc4)C[C@H]3C2)nc1-c1cc(Cl)ccc1OC(F)F)c1cnn2cccnc12` [Example 60, N-[1-[2-[(3aR,6aS)-2-[2-[(4-chlorophenyl)methoxy]ethyl]-1,3,3a,4,6,6a-hexahydropyrrolo[3,4-c]pyrrol-5-yl]-2-oxo-ethyl]-3-[5-chloro-2-(difluoromethoxy)phenyl]pyrazol-4-yl]pyrazolo[1,5-a]pyrimidine-3-carboxamide], for which the Ki amounted to 1.1 nM in assay [1] and 0.7 nM in assay [2]. Also, the EC50 in assay [3] is 46.2 nM.
The like results for `CN(C)C1CCN(C(=O)Cn2cc(NC(=O)c3cnn4cccnc34)c(-c3cc(Cl)ccc3OC(F)F)n2)C1` (stereo not drawn) [Example 65, N-[3-[5-chloro-2-(difluoromethoxy)phenyl]-1-[2-[3-(dimethylamino)pyrrolidin-1-yl]-2-oxo-ethyl]pyrazol-4-yl]pyrazolo[1,5-a]pyrimidine-3-carboxamide] were, in that order, 0.54 nM, 0.69 nM and 9.4 nM.
As to `COCCN(C)C1CCN(C(=O)Cn2cc(NC(=O)c3cnn4cccnc34)c(-c3cc(Cl)ccc3OC(F)F)n2)CC1` [Example 68, N-[3-[5-chloro-2-(difluoromethoxy)phenyl]-1-[2-[4-[2-methoxyethyl(methyl)amino]-1-piperidyl]-2-oxo-ethyl]pyrazol-4-yl]pyrazolo[1,5-a]pyrimidine-3-carboxamide], the Ki came to 0.74 nM in assay [1] and 1.68 nM in assay [2]. In addition, the EC50 in assay [3] came to 13.4 nM.
The matching figures for `O=C(Nc1cn(CC(=O)N2CCC(N3CCCC3)CC2)nc1-c1cc(Cl)ccc1OC(F)F)c1cnn2cccnc12` [Example 69, N-[3-[5-chloro-2-(difluoromethoxy)phenyl]-1-[2-oxo-2-(4-pyrrolidin-1-yl-1-piperidyl)ethyl]pyrazol-4-yl]pyrazolo[1,5-a]pyrimidine-3-carboxamide]: 0.86 nM, 2.45 nM and 20.4 nM.
The matching figures for `CN(C)CC1CCN(C(=O)Cn2cc(NC(=O)c3cnn4cccnc34)c(-c3cc(Cl)ccc3OC(F)F)n2)CC1` [Example 70, N-[3-[5-chloro-2-(difluoromethoxy)phenyl]-1-[2-[4-[(dimethylamino)methyl]-1-piperidyl]-2-oxo-ethyl]pyrazol-4-yl]pyrazolo[1,5-a]pyrimidine-3-carboxamide]: 0.67 nM, 2.38 nM and 16.1 nM.
The matching figures for `CN(C)C[C@@H]1CCCN(C(=O)Cn2cc(NC(=O)c3cnn4cccnc34)c(-c3cc(Cl)ccc3OC(F)F)n2)C1` [Example 72, N-[3-[5-chloro-2-(difluoromethoxy)phenyl]-1-[2-[(3S)-3-[(dimethylamino)methyl]-1-piperidyl]-2-oxo-ethyl]pyrazol-4-yl]pyrazolo[1,5-a]pyrimidine-3-carboxamide]: 1.17 nM, 4.07 nM and 7.2 nM.
As to `CN(C)CC1(O)CCN(C(=O)Cn2cc(NC(=O)c3cnn4cccnc34)c(-c3cc(Cl)ccc3OC(F)F)n2)CC1` [Example 74, N-[3-[5-chloro-2-(difluoromethoxy)phenyl]-1-[2-[4-[(dimethylamino)methyl]-4-hydroxy-1-piperidyl]-2-oxo-ethyl]pyrazol-4-yl]pyrazolo[1,5-a]pyrimidine-3-carboxamide], the Ki was found to be 0.97 nM in assay [1] and 2.42 nM in assay [2]. Moreover, the EC50 in assay [3] was 38.5 nM.
The matching figures for `CCNC1CCN(C(=O)Cn2cc(NC(=O)c3c(N)nn4cccnc34)c(-c3cc(Cl)ccc3OC(F)F)n2)CC1` [Example 75, 2-amino-N-[3-[5-chloro-2-(difluoromethoxy)phenyl]-1-[2-[4-(ethylamino)-1-piperidyl]-2-oxo-ethyl]pyrazol-4-yl]pyrazolo[1,5-a]pyrimidine-3-carboxamide]: 0.66 nM, 0.61 nM and 78.7 nM.
The matching figures for `Nc1nn2cccnc2c1C(=O)Nc1cn(CC(=O)N2CCC(N3CC[C@H](O)C3)CC2)nc1-c1cc(Cl)ccc1OC(F)F` [Example 77, 2-amino-N-[3-[5-chloro-2-(difluoromethoxy)phenyl]-1-[2-[4-[(3S)-3-hydroxypyrrolidin-1-yl]-1-piperidyl]-2-oxo-ethyl]pyrazol-4-yl]pyrazolo[1,5-a]pyrimidine-3-carboxamide]: 0.6 nM, 0.51 nM and 210 nM.
The matching figures for `CN(C)C[C@H]1CCCN1C(=O)Cn1cc(NC(=O)c2c(N)nn3cccnc23)c(-c2cc(Cl)ccc2OC(F)F)n1` [Example 78, 2-amino-N-[3-[5-chloro-2-(difluoromethoxy)phenyl]-1-[2-[(2R)-2-[(dimethylamino)methyl]pyrrolidin-1-yl]-2-oxo-ethyl]pyrazol-4-yl]pyrazolo[1,5-a]pyrimidine-3-carboxamide]: 2.08 nM, 1.38 nM and 52.4 nM.
For `CN(C)C[C@@H]1CCCN1C(=O)Cn1cc(NC(=O)c2c(N)nn3cccnc23)c(-c2cc(Cl)ccc2OC(F)F)n1` [Example 79, 2-amino-N-[3-[5-chloro-2-(difluoromethoxy)phenyl]-1-[2-[(2S)-2-[(dimethylamino)methyl]pyrrolidin-1-yl]-2-oxo-ethyl]pyrazol-4-yl]pyrazolo[1,5-a]pyrimidine-3-carboxamide], the Ki in assay [1] is 4.54 nM; in assay [2], 2.11 nM. Further, the EC50 in assay [3] was determined as 158 nM.
The matching figures for `CN(C)CC1(c2ccccc2)CCN(C(=O)Cn2cc(NC(=O)c3cnn4cccnc34)c(-c3cc(Cl)ccc3OC(F)F)n2)CC1` [Example 80, N-[3-[5-chloro-2-(difluoromethoxy)phenyl]-1-[2-[4-[(dimethylamino)methyl]-4-phenyl-1-piperidyl]-2-oxo-ethyl]pyrazol-4-yl]pyrazolo[1,5-a]pyrimidine-3-carboxamide]: 0.43 nM, 0.87 nM and 4.9 nM.
The matching figures for `CN(C)C[C@@H]1CCCN(C(=O)Cn2cc(NC(=O)c3c(N)nn4cccnc34)c(-c3cc(Cl)ccc3OC(F)F)n2)C1` [Example 82, 2-amino-N-[3-[5-chloro-2-(difluoromethoxy)phenyl]-1-[2-[(3S)-3-[(dimethylamino)methyl]-1-piperidyl]-2-oxo-ethyl]pyrazol-4-yl]pyrazolo[1,5-a]pyrimidine-3-carboxamide]: 1.17 nM, 0.53 nM and 8.7 nM.
The like results for `O=C(Nc1cn(CC(=O)N2CCC(NC3CCC3)CC2)nc1-c1cc(Cl)ccc1OC(F)F)c1cnn2cccnc12` [Example 84, N-[3-[5-chloro-2-(difluoromethoxy)phenyl]-1-[2-[4-(cyclobutylamino)-1-piperidyl]-2-oxo-ethyl]pyrazol-4-yl]pyrazolo[1,5-a]pyrimidine-3-carboxamide] were, in that order, 0.91 nM, 1.47 nM and 24.6 nM.
On to `CN(CCc1ccccn1)C1CCN(C(=O)Cn2cc(NC(=O)c3cnn4cccnc34)c(-c3cc(Cl)ccc3OC(F)F)n2)CC1` [Example 86, N-[3-[5-chloro-2-(difluoromethoxy)phenyl]-1-[2-[4-[methyl-[2-(2-pyridyl)ethyl]amino]-1-piperidyl]-2-oxo-ethyl]pyrazol-4-yl]pyrazolo[1,5-a]pyrimidine-3-carboxamide], for which the Ki in assay [1] came to 0.72 nM; in assay [2], 1.6 nM. The EC50 in assay [3] was 25.2 nM.
The matching figures for `CN(C)C(=O)CCCN(C)C1CCN(C(=O)Cn2cc(NC(=O)c3cnn4cccnc34)c(-c3cc(Cl)ccc3OC(F)F)n2)CC1` [Example 88, N-[3-[5-chloro-2-(difluoromethoxy)phenyl]-1-[2-[4-[[4-(dimethylamino)-4-oxo-butyl]-methyl-amino]-1-piperidyl]-2-oxo-ethyl]pyrazol-4-yl]pyrazolo[1,5-a]pyrimidine-3-carboxamide]: 1.72 nM, 1.91 nM and 299 nM.
The matching figures for `O=C(Nc1cn(CC(=O)N2CCC(NCCc3ccccc3)CC2)nc1-c1cc(Cl)ccc1OC(F)F)c1cnn2cccnc12` [Example 89, N-[3-[5-chloro-2-(difluoromethoxy)phenyl]-1-[2-oxo-2-[4-(2-phenylethylamino)-1-piperidyl]ethyl]pyrazol-4-yl]pyrazolo[1,5-a]pyrimidine-3-carboxamide]: 0.88 nM, 1.45 nM and 22.7 nM.
